Experiments:
[1] = tested on: macrophages; conditions: levels versus that obtained in the serum (Gladue et al. 1989); cited from earlier work
[2] = tested on: Leishmania major; experiment: In vitro susceptibility of Leishmania major amastigotes in murine monocyte-derived bone marrow macrophages (Giemsa counting); format: cell-based; conditions: for multiplication index: analysis of variance; for percentage of macrophages infected: by day five; for number of amastigotes found in infected cells: day five
Procedure: Monocyte-derived bone marrow macrophages from C57B1/6 naïve mice. These cells were harvested from the femoral bones and incubated for 7 days at 37° C. in 5% CO2 in complete tissue culture medium [DMEM, 20% heat inactivated fetal calf serum, 1% Penicillin/streptomycin, 1% glutamine, 1% pyruvate, 30% L-cell line supernatant]. After 7 days, 50×10^6 macrophages per mouse donor were recovered from the cultures. The cells were then washed and 1×10^6 macrophages were added to the wells (16 mm diameter) of a 24 well plate at the bottom of which was placed a round glass cover slip. The macrophages were added to the wells in 300 μl of culture medium consisting of RPMI 1640,10% heat inactivated fetal calf serum, 1% Penicillin/streptomycin, 1% glutamine, 2.5% BEPES, and 0.1% 2-mercaptoethanol.
Cryopreserved amastigotes of Leishmania major (Friedlin strain), originally obtained from footpad lesions of SCID mice, were thawed, washed with medium and counted in a hemocytometer, then re-suspended in complete medium and added to the wells at a concentration of 1 million per well (amastigote/macrophage ratio 1:1) in 50 μl of complete medium. The total volume of media in each well was […].
Amphotericin B (Fungizone, Gibco) was reconstituted from a lyophilized form and azithromycin (Zithromax, Pfizer) was prepared from a 500 mg-powder vial for IV use; both antibiotics were reconstituted in sterile water and diluted in complete medium to the desired concentration. Amphotericin B was used at a concentration of 1 mg/ml and azithromycin at concentrations of 0.1, 0.6, 3 and 15 μg/ml.
After mixing the macrophages with the amastigotes, the plates were incubated for 3 hrs. at 37° C. in 5% Co2; at that point the plates were washed with PBS to eliminate non-adherent macrophages and free amastigotes. Medium with or without antibiotics was added to the wells at a final volume of 3 ml. Some of the cultures were removed from the wells at this point and placed in petri dishes containing 50 mls of medium with antibiotics. Amphotericin B was used as a positive control group in all the experiments. The cultures were maintained at 37° C. in 5% CO2 and culture media and antibiotics were changed daily.
Before adding antibiotics on day 0 and on days 3 and 5, cover slips were recovered from the wells and petri dishes, immediately fixed and stained with Giemsa for counting, which was performed using 1000X magnification with immersion oil. All the experiments were carried out in duplicate.
Two cover slips were recovered from each time point and the data obtained for each slide was as follows: 200 to 300 macrophages were counted, number of infected macrophages per 100 macrophages and number of amastigotes per 100 macrophages was determined. The results reported are the mean values of those two parasite counts. Experiments were repeated a minimum of two times.

[3] = 0.1 μg/ml azithromycin, Day 0 (before adding antibiotics)
[4] = 0.6 μg azithromycin, volume 3 ml, five days
[5] = 0.6 μg/ml azithromycin, Day 0 (before adding antibiotics)
[6] = 3.0 μg azithromycin, volume 3 ml, five days
[7] = 3.0 μg/ml azithromycin, Day 0 (before adding antibiotics)
[8] = 15 μg/ml azithromycin, Day 0 (before adding antibiotics)
[9] = amphotericin B at 1 mg/ml, Day 0 (before adding antibiotics)
[10] = amphotericin B at 1 mg/ml, Day 3
[11] = amphotericin B at 1 mg/ml, Day 5

For `CC[C@H]1OC(=O)[C@H](C)[C@@H](O[C@H]2C[C@@](C)(OC)[C@@H](O)[C@H](C)O2)[C@H](C)[C@@H](O[C@@H]2O[C@H](C)C[C@H](N(C)C)[C@H]2O)[C@](C)(O)C[C@@H](C)CN(C)[C@H](C)[C@@H](O)[C@]1(C)O` [azithromycin], the “drug accumulation in the tissue cells, especially in macrophages, relative to serum” value [1] is listed as 110 times, the “Number of Amastigotes/100 macrophages” value [2, 3] is listed as 27 /100 macrophages and the “Percent Infected Macrophages” value [2, 3] is listed as 16%. The “Number of Amastigotes/100 macrophages” value ([2]; 0.1 μg/ml azithromycin, Day 3) was 10 /100 macrophages, the “Percent Infected Macrophages” value ([2]; 0.1 μg/ml azithromycin, Day 3) was 8% and the “Number of Amastigotes/100 macrophages” value ([2]; 0.1 μg/ml azithromycin, Day 5) was 38 /100 macrophages. For the same molecule, the “Percent Infected Macrophages” value ([2]; 0.1 μg/ml azithromycin, Day 5) was 24%, the “Number of Amastigotes/100 macrophages” value ([2]; 0.6 μg azithromycin, five days) was 11 /100 macrophages and the “Number of Amastigotes/100 macrophages” value [2, 4] was 23 /100 macrophages. For the same molecule, the “Percent Infected Macrophages” value [2, 4] was 17%, the “Percent Infected Macrophages” value ([2]; 0.6 μg azithromycin, volume 50 ml, five days) was 10% and the “Number of Amastigotes/100 macrophages” value [2, 5] was 27 /100 macrophages. For the same molecule, the “Percent Infected Macrophages” value [2, 5] was 16%, the “Number of Amastigotes/100 macrophages” value ([2]; 0.6 μg/ml azithromycin, Day 3) was 14 /100 macrophages and the “Percent Infected Macrophages” value ([2]; 0.6 μg/ml azithromycin, Day 3) was 28%. For the same molecule, the “Number of Amastigotes/100 macrophages” value ([2]; 0.6 μg/ml azithromycin, Day 5) was 11 /100 macrophages, the “Percent Infected Macrophages” value ([2]; 0.6 μg/ml azithromycin, Day 5) was 17% and the “Number of Amastigotes/100 macrophages” value ([2]; 3.0 μg azithromycin, five days) was 13 /100 macrophages. For the same molecule, the “Number of Amastigotes/100 macrophages” value [2, 6] was 11 /100 macrophages, the “Percent Infected Macrophages” value [2, 6] was 9% and the “Percent Infected Macrophages” value ([2]; 3.0 μg azithromycin, volume 50 ml, five days) was 11%. The “Number of Amastigotes/100 macrophages” value [2, 7] was 27 /100 macrophages, the “Percent Infected Macrophages” value [2, 7] was 16% and the “Number of Amastigotes/100 macrophages” value ([2]; 3.0 μg/ml azithromycin, Day 3) was 45 /100 macrophages. The “Percent Infected Macrophages” value ([2]; 3.0 μg/ml azithromycin, Day 3) was 31%, the “Number of Amastigotes/100 macrophages” value ([2]; 3.0 μg/ml azithromycin, Day 5) was 13 /100 macrophages and the “Percent Infected Macrophages” value ([2]; 3.0 μg/ml azithromycin, Day 5) was 9%. For the same molecule, the “Number of Amastigotes/100 macrophages” value [2, 8] was 27 /100 macrophages, the “Percent Infected Macrophages” value [2, 8] was 16% and the “Number of Amastigotes/100 macrophages” value ([2]; 15 μg/ml azithromycin, Day 3) was 13 /100 macrophages. For the same molecule, the “Percent Infected Macrophages” value ([2]; 15 μg/ml azithromycin, Day 3) was 10%, the “Number of Amastigotes/100 macrophages” value ([2]; 15 μg/ml azithromycin, Day 5) was 12 /100 macrophages and the “Percent Infected Macrophages” value ([2]; 15 μg/ml azithromycin, Day 5) was 9%. The multiplication index ([2]; 0.6-15 μg/ml of azithromycin) was “significant reduction”, the “ability to limit the replication of L. major (multiplication index) compared with 1 mg/ml of amphotericin B” value ([2]; 3 and 15 μg/ml of azithromycin) was “statistically equal” and the “50% effective dose (ED50)” value ([2]; L. major in murine macrophages in vitro) was under 0.6 µg/mL. For the same molecule, the “percentage of macrophages infected” value ([2]; 0.6-15 μg/ml of azithromycin) was “significant decrease” and the “number of amastigotes found in infected cells” value ([2]; 3.0-15 μg/ml of azithromycin) was “significant decrease”.
For `C[C@@H]1[C@H](O)[C@@H](C)/C=C/C=C/C=C/C=C/C=C/C=C/C=C/[C@H](O[C@@H]2O[C@H](C)[C@@H](O)[C@H](N)[C@@H]2O)C[C@@H]2O[C@](O)(C[C@@H](O)C[C@@H](O)[C@H](O)CC[C@@H](O)C[C@@H](O)CC(=O)O[C@H]1C)C[C@H](O)[C@H]2C(=O)O` [Amphotericin B], the multiplication index ([2]; 1 mg/ml of amphotericin B) was “significant reduction”, the “Number of Amastigotes/100 macrophages” value [2, 9] was 27 /100 macrophages and the “Percent Infected Macrophages” value [2, 9] was 16%. For the same molecule, the “Number of Amastigotes/100 macrophages” value [2, 10] was 1 /100 macrophages, the “Percent Infected Macrophages” value [2, 10] was 1% and the “Number of Amastigotes/100 macrophages” value [2, 11] was 0 /100 macrophages. For the same molecule, the “Percent Infected Macrophages” value [2, 11] was 0%, the “percentage of macrophages infected” value ([2]; 1 mg/ml of amphotericin B) was “significant decrease” and the “number of amastigotes found in infected cells” value ([2]; 1 mg/ml of amphotericin B) was “significant decrease”.

Source: patent US20020049167A1, “Azithromycin as a therapeutic agent for infections with leishmania parasites” (priority 2000, published 2002)
